Marks after values point to notes of the source that are not given here.

Experimental findings from US7732437B2, “Use of anti-histaminics for acute reduction of elevated intracranial pressure” (Janssen Pharmaceutica, NV., priority 2001, dated 2010) are described below.

The target in data set [1] is T1, human histamine H1-receptor (Homo sapiens, UniProt P35367).
T1 construct: expressed in transfected cells; host or cells: CHO cells
Nature of the data set: Radioligand binding, histamine H1-receptor, competitive inhibition of [3H]Pyrilamine. As to conditions: CHO-cells transfected with the human histamine H1-receptor, read-out: H1-antagonist activity (pIC50) (converted). The method, then: Competitive inhibition of [^3H] […] Incubation was done during 150 min at 22° C.

The subject of data set [2] is non-traumatised rats. In words: ICP and blood pressure in non-traumatized rats. As to conditions: i.v. 0.5 mg/kg/min 10 minutes, then 0.1 mg/kg/min 50 min; anaesthetised. The format is in vivo, rat. The method, then:
For comparison, two commercially available H2-agonists (dimaprit and impromidine) were also tested by infusion into non-traumatized rats, using a dose of 0.5 mg/kg/min for 10 minutes for dimaprit and increasing doses up to 3.75 mg/kg/hour for impromidine.
Rats The effect of Compound 2, Compound 1 and Racemate (comp. 1 and comp. 2) on ICP, MABP and CPP was tested in anaesthetised non-traumatised rats. […] Conclusion

Data set [3] deals with rabbits with cortical cold lesion. Nature of the data set: Cold lesion-induced rise of ICP in rabbits. In kind it is in vivo, rabbit. Conditions: 2 mg/kg/min for 10 min, one day after cryo-lesion. The method, then:
Cryo-lesions were induced in adult rabbits to obtain a pathological ICP that is caused by tissue oedema. A 8 mm stainless steel rod was placed at predetermined coordinates on the exposed skull of deeply anaesthetised rabbits and cooled for 10 min with liquid nitrogen. One day later the animals were re-anaesthetised and ICP and blood pressure continuously recorded as described for the rat. After a stabilisation period of 15 min, Compound 1 was infused for 10 min at a dose of 2 mg/kg/min. Solvent (preclinical formulation containing 10% HP-β-CD, pH 4) was given for 10 min at a rate of 2 ml/min.

The test system of data set [4] is Sprague-Dawley rats with closed head injury. In words: Closed Head Injury (CHI) model, severe head injury.
Excerpt: A clinically relevant rat model for traumatic brain injury was used to test the compounds according to the invention and the commercially available compounds. […] Trauma was induced in intubated, isoflurane anesthetized (1.5% isoflurane in a mixture of 30% O2 and 70% N2O) Sprague-Dawley rats (380-400 g) stereotaxically positioned on a table mounted on 4 springs. A 400 g steel cylinder, protected with a 9 mm diameter silicon disc, was dropped on the unprotected skull from a height of either 70 cm or 50 cm (respectively ‘severe’ and ‘moderate’ head injury). The impact area was centered between bregma and lamda. ICP was recorded using a Codman microsensor probe inserted in the parietal cortex. […] The severe head injury mode was used for the evaluation of pharmacological effects immediately after trauma (screening procedure). […] In pharmacological studies, animals with a pathological ICP between 12.5 and 35 mm Hg were included. The changes in ICP, mean arterial blood pressure (MABP) and cerebral perfusion pressure CPP (=MABP—CPP) were expressed as percentage of the initial value at onset of the treatment.
On a weekly base, 4 treated groups of 3 rats were compared with 3 saline treated animals. Since conventional statistical methods require a larger amount of animals, a sequential procedure was used. Sequential methods operate in different stages. At each stage, a group of animals was selected as homogeneous as possible. Animals were randomly allocated to either drugs or saline. […] Given the biological relevant level of activity that must be detected, the expected fraction of false positive and negative results was known and fixed. A sequential two-sample grouped rank test was used.
Treatment was started at 20 min after severe head injury and involved administering a dose of 0.5 mg/kg/min during 10 minutes, followed by 0.1 mg/kg/min during 50 min.
Ranitidine was infused for 6 min at a dose of 2 mg/kg/min in the rat CHI-model after inflicting severe head injury. Solvent (NaCl+H2T) was given at the same rate. In each group, 6 rats were treated. […] The percentage of reduction are calculated as % change of the ICP recorded at the onset of the treatment and at the end of the infusion.
A number of commercially available H1- and H2-antagonists was infused for 10 min at a dose of 0.5 mg/kg/min in the rat CHI-model after inflicting severe head injury. Solvent (NaCl+H2T) was given at the same rate. In each group, 6 rats were treated.
Data set [5] shares this test system. In words: Closed Head Injury (CHI) model, moderate head injury, treatment 24 h after trauma. The format is in vivo, rat. Conditions: i.v. 0.5 mg/kg.min 10 min, then 0.1 mg/kg.min 45 min; 24 h after moderate head injury. The source says:
The impact area was centered between bregma and lamda.
Near-infrared spectroscopy (NIRS) of the rat brain ‘in vivo’ allows to quantify non-invasively saturation of brain haemoglobin with oxygen (HbSat) and total brain haemoglobin concentration ([HbTot]). The latter is a measure for cerebral blood volume (CBV). Changes in the redox state of the mitochondrial enzyme cytochrome oxidase (CytOx), an indicator for tissue oxygenation, can also be monitored.
HbSat is not affected by compound 1 and the racemate (Comp. 1 and Comp. 2).
The effects of treatment with Compound 2 (i.v. infusion at a dose of 0.1 mg/kg.min during 30 min) at 24 h after moderate trauma were studied using different anesthetics (isoflurane, chloralhydrate, pentobarbital). When chloralhydrate (400 mg/kg i.p) is used as anesthetic, ICP decreases to 75% of initial value and MABP gradually increases to 110% of initial value (medians, n=6). […] Barbiturates also reduce the ICP and an important additional effect can be obtained with the compound.

Data set [6] has as its target T2, histamine H2-receptor (Cavia porcellus, UniProt P47747).
T2 construct: using guinea pig striatum cells and [^125I]APT as the radioligand; from tissue; host or cells: guinea pig striatum
In words: Radioligand binding, histamine H2-receptor, guinea pig striatum cells, [125I]APT. Conditions: [125I]APT 0.1 nM, 150 min at 22° C., read-out: H2-antagonist activity (pIC50) (converted).

[7] abbreviates: 0.5 mg/kg/min 10 min, then 0.1 mg/kg/min 50 min, start 20 min after severe CHI, n = 10.
Setting [8] is: i.v. 1 mg/kg/min during 10 min, repeated, start 20 min after severe head injury.

T2 sequence (P47747 whole entry): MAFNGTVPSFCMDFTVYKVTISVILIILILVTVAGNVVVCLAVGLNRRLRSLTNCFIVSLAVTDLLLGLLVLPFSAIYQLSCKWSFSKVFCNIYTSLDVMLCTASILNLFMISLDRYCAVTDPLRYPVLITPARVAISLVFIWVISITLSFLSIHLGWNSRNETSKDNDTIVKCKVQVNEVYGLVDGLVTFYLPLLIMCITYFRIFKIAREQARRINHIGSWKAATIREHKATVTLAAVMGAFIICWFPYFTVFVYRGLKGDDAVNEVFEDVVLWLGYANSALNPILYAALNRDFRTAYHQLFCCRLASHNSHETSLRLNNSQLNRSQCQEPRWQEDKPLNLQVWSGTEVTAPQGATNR
T1 sequence (P35367 whole entry): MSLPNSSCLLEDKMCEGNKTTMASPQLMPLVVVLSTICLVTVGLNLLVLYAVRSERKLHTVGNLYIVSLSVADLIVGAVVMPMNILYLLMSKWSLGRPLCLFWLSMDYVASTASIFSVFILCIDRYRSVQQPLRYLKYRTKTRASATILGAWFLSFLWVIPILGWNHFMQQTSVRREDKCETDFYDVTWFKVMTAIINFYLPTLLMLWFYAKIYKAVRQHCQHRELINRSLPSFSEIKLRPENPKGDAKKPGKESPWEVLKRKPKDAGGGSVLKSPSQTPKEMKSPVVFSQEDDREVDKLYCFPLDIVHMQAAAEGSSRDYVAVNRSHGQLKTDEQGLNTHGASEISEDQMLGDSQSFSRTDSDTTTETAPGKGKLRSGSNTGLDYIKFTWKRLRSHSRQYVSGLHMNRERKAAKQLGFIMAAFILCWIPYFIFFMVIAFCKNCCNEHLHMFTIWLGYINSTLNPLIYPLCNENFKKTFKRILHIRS

For `Cc1nc2n(C)c3ccccc3n2c(=O)c1CCN1CCC(C2c3ccccc3CCn3c2nc2ccccc23)CC1Cc1ccccc1` (single isomer, unassigned) [Compound 1, pyrimido[1,2-a]benzimidazol-4(10H)-one, 3-[2-[4-(11 ,12-dihydro-6H-benzimidazo[2,1-b][3]benzazepin-6-yl)-2-(phenylmethyl)-1-piperidinyl]ethyl]-2,10-dimethyl (E)-2-butenedioate (2:3) hydrate (1:1)], the IC50 in data set [1] was 200 nM. In addition, the “effect on ICP, MABP and CPP in non-traumatised rats” value in data set [2] is given as “comparable with those obtained in the traumatized animals”. In data set [3], the “ICP after termination of infusion” value is on record as “significant ICP reduction”, the ICP during infusion entry was “no immediate decrease in ICP” and the “blood pressure during infusion” value is recorded as “blood pressure drops”. Further, in data set [4] (setting [7]), the “CPP (%), average change over treatment period, median (95% C.I.)” value is on record as −1.9 (−8.9; 0.4) %; the “ETCO2 (%), average change over treatment period, median (95% C.I.)” value was 2.2 (−0.8; 8.4) %; the “Heart rate(%), average change over treatment period, median (95% C.I.)” value is recorded as −4.1 (−11.4; 1.9) %; the “ICP (%), average change over treatment period, % change of initial value, median (95% C.I.)” value is listed as −15.4 (−22.6; −11.5)* %. Further, in data set [4] (setting [7]), the “MABP (%), average change over treatment period, median (95% C.I.)” value is recorded as −3.6 (−11.9; −1.5) % and the “Resp. rate(%), average change over treatment period, median (95% C.I.)” value was 5.3 (−3.3; 13.6) %. Further, in data set [4] (0.125, 0.25, 0.5, 1 and 2 mg/kg/min for 10 min), the “effect on ICP during 10 min infusion (dose response)” value is reported as “sustained dose-dependent decrease of ICP”. In data set [4] (0.125-2 mg/kg/min for 10 min), the “effect on ICP in the 10 min period following the infusion” value is “highly significant dose-dependent effect on ICP remains present”. The “dose yielding a statistically significant larger reduction in ICP than solvent” value in data set [4] (10 min infusion) is on record as not below 1 mg/kg/min. Moreover, in data set [4] (setting [8]), the “effect of repeated infusion on ICP” value is reported as “rapid reduction of ICP” and the “effect of repeated infusion on blood pressure” value is recorded as “Blood pressure drops during Compound 1 treatment but is restored again after this episode”. For the same molecule, in data set [5], the “effect on saturation of brain haemoglobin with oxygen HbSat (NIRS)” value is listed as “not affected”, the “effect on the redox state of CytOx (NIRS)” value is listed as “do not have an effect” and the “effect on total brain haemoglobin concentration [HbTot] (NIRS)” value is reported as “do not have a significant effect”. Besides, the IC50 in data set [6] was 1000 nM.
